Laboratory results as given in patent US20020002171A1, “Materials and methods for killing nematodes and nematode eggs” (priority 2000, published 2002).

Each compound was assayed on Caenorhabditis elegans (assay: C. elegans L1 nematicidal dose response in 96-well plates, 5 day visual score (Example 2; same procedure for Example 7, Table 3)). Settings: Follow-up HTS run.
Type: in vivo
Design: key to 5 Day Visual Score V1 / 5 Day Visual Score V2 / 5 Day Visual Score V3 / 5 Day Visual Score V4 / 5 Day Visual Score V6 / 5 Day Visual Score V5 / Initial HTS Run Visual Score / Follow-up HTS Run Visual Score: Dead: only stiff L1s (no movement); Dead (L4): worms are dead, but at a later larval stage; majority of worms are L1 (based on size) worms move when plate is tapped; majority of worms are L2 (based on size); majority of worms are L3 (based on size); majority of worms are L4 (based on size); AD: majority of worms are adult; #AD: 5 adult worms or less; B!: sterile (0-25 progeny); B: low broodsize (25-100 progeny); ˜B: moderate broodsize (100-250 progeny); <: reduced broodsize (250-500 progeny); OK: no effect (˜1000+ progeny)
Method: Caenorhabditis elegans adults were grown on Nematode Growth Medium (NGM) until they produced eggs, then the adults were removed.
The eggs were allowed to hatch, and the L1 larvae collected. See The Nematode Caenorhabditis elegans (1988) Cold Spring Harbor Laboratory Press. Using a Matrix Programmable Pipette, the L1s were distributed into 96-well tissue culture plates, 20 L1 in 50 μl NGM per well. Antibiotic/Antimyoticwas added to each well, and 1% by weight E. coli strain HB101. The subject anthelmintic compounds were stored at 5 mM in 100% DMSO. 0.7 μl of compounds 1-31 were added to the left-most column of wells to yield a final concentration of 70 μM in 1.4% DMSO, with 1.4% DMSO only as the control. The compounds were then subjected to 5 more 3-fold dilutions from left to right to yield 6 column concentrations of 70 μM, 23.3 μM, 7.8 μM, 2.6 μM, 0.9 μM, and 0.3 μM. Plates were stored in air-tight Rubbermaid plastic boxes at 20° C. The nematodes had cleared all control wells by day 4, and nematode viability was scored by visual examination under a 100× dissecting microsope on day 5. A visual viability scoring system was used as follows:
Column V1 has a compound concentration of 70 μM with sequential 3-fold dilutions reported in columns V2, V3, V4, V5, and V6, respectively, such that the V6 concentration was 0.3 μM.
The nematicidal activity of anthelmintic Compositions 48-168 were determined in accordance with the procedure outlined in Example 2.

SMILES | Follow-up HTS Run % Run | Follow-up HTS Run Visual Score | Follow-up HTS Run mOD
Cc1cccc(C)c1N1CCN(c2nsc(N(CC(C)C)CC(C)C)n2)CC1 [compound 231] | 65% | 2AD/B | 105 mOD
C=CCN(CC=C)c1nc(N2CCN(c3c(C)cccc3C)CC2)ns1 [compound 232] | 68% | Dead/1AD/B | 109 mOD
CCOC(=O)CCN(Cc1ccccc1)c1nc(N2CCN(c3c(C)cccc3C)CC2)ns1 [compound 233] | 93% | Dead | 150 mOD
Cc1cccc(C)c1N1CCN(c2nsc(N(C)CCc3ccccc3)n2)CC1 [compound 234] | 63% | 2AD/B | 102 mOD
CCCCN(CC)c1nc(N2CCN(c3ncccn3)CC2)ns1 [compound 235] | 127% | L2 - 1/2 Dead | 205 mOD
CCCCN(CC)c1nc(N2CCN(c3ccc(F)cc3)CC2)ns1 [compound 236] | 123% | Dead | 198 mOD

Same assay, conditions: Initial HTS run

SMILES | Initial HTS Run % Run | Initial HTS Run Visual Score | Initial HTS Run mOD
Cc1cccc(C)c1N1CCN(c2nsc(N(CC(C)C)CC(C)C)n2)CC1 [compound 231] | 119% | 2AD/B | 131 mOD
C=CCN(CC=C)c1nc(N2CCN(c3c(C)cccc3C)CC2)ns1 [compound 232] | 120% | 2AD/B | 132 mOD
CCOC(=O)CCN(Cc1ccccc1)c1nc(N2CCN(c3c(C)cccc3C)CC2)ns1 [compound 233] | 113% | 1AD/B | 124 mOD
Cc1cccc(C)c1N1CCN(c2nsc(N(C)CCc3ccccc3)n2)CC1 [compound 234] | 120% | 3AD/B | 132 mOD
CCCCN(CC)c1nc(N2CCN(c3ncccn3)CC2)ns1 [compound 235] | 128% | Dead (L3?) | 141 mOD
CCCCN(CC)c1nc(N2CCN(c3ccc(F)cc3)CC2)ns1 [compound 236] | 136% | 1AD/B | 150 mOD

Same assay, conditions: dose response, dilution V1, day 5

SMILES | 5 Day Visual Score V1
Cc1cccc(C)c1N1CCN(c2nsc(N(CC(C)C)CC(C)C)n2)CC1 [compound 231] | Dead
C=CCN(CC=C)c1nc(N2CCN(c3c(C)cccc3C)CC2)ns1 [compound 232] | Dead
CCOC(=O)CCN(Cc1ccccc1)c1nc(N2CCN(c3c(C)cccc3C)CC2)ns1 [compound 233] | Dead
Cc1cccc(C)c1N1CCN(c2nsc(N(C)CCc3ccccc3)n2)CC1 [compound 234] | Dead
CCCCN(CC)c1nc(N2CCN(c3ncccn3)CC2)ns1 [compound 235] | Dead
CCCCN(CC)c1nc(N2CCN(c3ccc(F)cc3)CC2)ns1 [compound 236] | Dead

Same assay, conditions: dose response, dilution V2, day 5

SMILES | 5 Day Visual Score V2
Cc1cccc(C)c1N1CCN(c2nsc(N(CC(C)C)CC(C)C)n2)CC1 [compound 231] | Dead
CCCCN(CC)c1nc(N2CCN(c3ncccn3)CC2)ns1 [compound 235] | #AD/˜B

Same assay, conditions: dose response, dilution V3, day 5

SMILES | 5 Day Visual Score V3
Cc1cccc(C)c1N1CCN(c2nsc(N(CC(C)C)CC(C)C)n2)CC1 [compound 231] | < (reduced broodsize (250-500 progeny))
C=CCN(CC=C)c1nc(N2CCN(c3c(C)cccc3C)CC2)ns1 [compound 232] | OK (no effect (˜1000+ progeny))
CCOC(=O)CCN(Cc1ccccc1)c1nc(N2CCN(c3c(C)cccc3C)CC2)ns1 [compound 233] | ˜B (moderate broodsize (100-250 progeny))
Cc1cccc(C)c1N1CCN(c2nsc(N(C)CCc3ccccc3)n2)CC1 [compound 234] | ˜B (moderate broodsize (100-250 progeny))
CCCCN(CC)c1nc(N2CCN(c3ncccn3)CC2)ns1 [compound 235] | OK (no effect (˜1000+ progeny))

Same assay, conditions: dose response, dilution V4, day 5

SMILES | 5 Day Visual Score V4
Cc1cccc(C)c1N1CCN(c2nsc(N(CC(C)C)CC(C)C)n2)CC1 [compound 231] | OK (no effect (˜1000+ progeny))
C=CCN(CC=C)c1nc(N2CCN(c3c(C)cccc3C)CC2)ns1 [compound 232] | OK (no effect (˜1000+ progeny))
CCOC(=O)CCN(Cc1ccccc1)c1nc(N2CCN(c3c(C)cccc3C)CC2)ns1 [compound 233] | OK (no effect (˜1000+ progeny))
Cc1cccc(C)c1N1CCN(c2nsc(N(C)CCc3ccccc3)n2)CC1 [compound 234] | < (reduced broodsize (250-500 progeny))
CCCCN(CC)c1nc(N2CCN(c3ncccn3)CC2)ns1 [compound 235] | OK (no effect (˜1000+ progeny))
CCCCN(CC)c1nc(N2CCN(c3ccc(F)cc3)CC2)ns1 [compound 236] | < (reduced broodsize (250-500 progeny))

Same assay, conditions: dose response, dilution V5, day 5

SMILES | 5 Day Visual Score V5
Cc1cccc(C)c1N1CCN(c2nsc(N(CC(C)C)CC(C)C)n2)CC1 [compound 231] | OK (no effect (˜1000+ progeny))
C=CCN(CC=C)c1nc(N2CCN(c3c(C)cccc3C)CC2)ns1 [compound 232] | OK (no effect (˜1000+ progeny))
CCOC(=O)CCN(Cc1ccccc1)c1nc(N2CCN(c3c(C)cccc3C)CC2)ns1 [compound 233] | OK (no effect (˜1000+ progeny))
Cc1cccc(C)c1N1CCN(c2nsc(N(C)CCc3ccccc3)n2)CC1 [compound 234] | OK (no effect (˜1000+ progeny))
CCCCN(CC)c1nc(N2CCN(c3ncccn3)CC2)ns1 [compound 235] | OK (no effect (˜1000+ progeny))
CCCCN(CC)c1nc(N2CCN(c3ccc(F)cc3)CC2)ns1 [compound 236] | < (reduced broodsize (250-500 progeny))

Same assay, conditions: dose response, dilution V6, day 5

SMILES | 5 Day Visual Score V6
Cc1cccc(C)c1N1CCN(c2nsc(N(CC(C)C)CC(C)C)n2)CC1 [compound 231] | OK (no effect (˜1000+ progeny))
C=CCN(CC=C)c1nc(N2CCN(c3c(C)cccc3C)CC2)ns1 [compound 232] | OK (no effect (˜1000+ progeny))
CCOC(=O)CCN(Cc1ccccc1)c1nc(N2CCN(c3c(C)cccc3C)CC2)ns1 [compound 233] | OK (no effect (˜1000+ progeny))
Cc1cccc(C)c1N1CCN(c2nsc(N(C)CCc3ccccc3)n2)CC1 [compound 234] | OK (no effect (˜1000+ progeny))
CCCCN(CC)c1nc(N2CCN(c3ncccn3)CC2)ns1 [compound 235] | OK (no effect (˜1000+ progeny))
CCCCN(CC)c1nc(N2CCN(c3ccc(F)cc3)CC2)ns1 [compound 236] | OK (no effect (˜1000+ progeny))
